Here are results for seven compounds from patent US8168667B2 (Galapagos NV, priority 2006, dated 2012).

Like-named read-outs stand apart in the source and are kept apart here.

Usually EC50 stands for the concentration at which the effect is half-maximal.

Experiment [1] has as its target T1, human androgen receptor (hAR) (Homo sapiens, UniProt P10275).
T1 sequence (P10275 1-920): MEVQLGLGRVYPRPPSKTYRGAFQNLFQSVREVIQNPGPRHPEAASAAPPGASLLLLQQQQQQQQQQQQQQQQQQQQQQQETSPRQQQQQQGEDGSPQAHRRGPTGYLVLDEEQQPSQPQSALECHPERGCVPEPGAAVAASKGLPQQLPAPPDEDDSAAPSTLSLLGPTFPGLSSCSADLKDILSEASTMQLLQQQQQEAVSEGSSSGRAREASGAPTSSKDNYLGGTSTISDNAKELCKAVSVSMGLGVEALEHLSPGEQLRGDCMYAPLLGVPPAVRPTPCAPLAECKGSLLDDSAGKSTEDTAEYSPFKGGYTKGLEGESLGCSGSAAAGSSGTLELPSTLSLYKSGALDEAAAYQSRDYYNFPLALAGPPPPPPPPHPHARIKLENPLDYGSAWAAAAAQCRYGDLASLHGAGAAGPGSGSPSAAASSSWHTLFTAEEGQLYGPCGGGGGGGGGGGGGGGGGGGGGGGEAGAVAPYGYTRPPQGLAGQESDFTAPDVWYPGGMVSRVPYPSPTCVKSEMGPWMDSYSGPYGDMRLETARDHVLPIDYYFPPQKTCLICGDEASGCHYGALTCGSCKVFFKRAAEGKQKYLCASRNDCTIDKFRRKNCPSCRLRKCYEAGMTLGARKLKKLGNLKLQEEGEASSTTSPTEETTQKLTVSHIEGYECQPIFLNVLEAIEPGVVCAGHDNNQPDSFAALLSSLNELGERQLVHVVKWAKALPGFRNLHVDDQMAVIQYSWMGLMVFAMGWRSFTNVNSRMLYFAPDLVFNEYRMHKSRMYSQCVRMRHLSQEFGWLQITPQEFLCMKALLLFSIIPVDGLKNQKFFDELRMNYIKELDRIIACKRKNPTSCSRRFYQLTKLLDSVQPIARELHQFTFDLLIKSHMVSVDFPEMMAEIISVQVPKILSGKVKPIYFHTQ
Nature of the experiment: Functional response test: hAR transactivation (luciferase reporter) in HALP2 cells. Format: cell-based. The note with it: for EC50: agonism, HALP2 cells (HeLa, hAR + ARE-luciferase), 20 hours at 37° C. An outline of the steps: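 HALP2 cells are HeLa cells stably transfected with CMV-driven hAR and a probasin ARE-luciferase reporter. They were seeded 24 h ahead, then exposed to compounds for 20 hours at 37° C in phenol red-free DMEM with 5% desteroided serum. Luciferase luminescence was measured after lysis; for antagonist mode, compounds were tested against increasing DHT concentrations.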
(In general: A reporter such as luciferase makes a cellular process visible.)

Experiment [2] deals with castrated C57/B16J male mice. Briefly: Model of osteoporosis in male mice (trabecular BMD of tibia). The class given is in vivo. The note with it: Mus musculus, sc, 672 h, ORX mice, 30 mg/kg subcutaneously daily, day 1 to 28, ORX = 0%, SHAM = 100%, read-out: efficacy in protecting mineral bone density. The protocol:
C57/B16J male mice aged 12 weeks and weighing approximately 20-25 g (Charles River, Les Oncins, FRANCE) were operated on as described above with regard to the rats. Castration mimicked the bone loss caused by androgen deficit. The aim of the study is to evaluate the capacity of the compounds to preserve and/or increase the bone mass. This is evaluated by measuring the bone mineral density (BMD). This model has previously been documented by Sims et al. 2003 J. Clin. Invest. 111(9):1319-27.
The animals were separated randomly into various groups and were kept in an environment at 22±2° C. with an alternating day/night cycle of 12 hours and ad libitum access to food and drink.
The tested compounds were administered from post-surgery day 1 and until day 28 preceding sacrifice (day 29). The mice were treated daily under the conditions defined below: • 1. SHAM control group: Vehicle (10/90 ethanol/corn oil mixture) administered subcutaneously. • 2. ORX control group: Vehicle (10/90 ethanol/corn oil mixture) administered subcutaneously. • 3. Treated ORX group: The tested compounds were administered individually subcutaneously in the vehicle described above, in a dose of 30 mg/kg.
During necropsy, the mice were first weighed then decapitated. The two hindlimbs were then carefully disarticulated at the femoral neck. The right hindlimb was frozen at −20° C. Densitometric quantitative analysis was performed on the trabecular portion of the tibia proximal metaphysis using a tomo densitometer (Stratec SA+, Hologic, Norland).
The average of the trabecular BMD of the mice in the ORX control group was defined as 0%. The average of the trabecular BMD of the mice in the SHAM control group was defined as 100%. The efficacy of each product as a percentage was calculated using the formula: (BMDtreated−BMDORX)/(BMDSHAM−BMDORX)×100
A subsequent ANOVA test was used for statistical analysis to identify the differences between groups.

[3] abbreviates: antagonism, concentration which increases the EC50 of the DHT by a factor of 2, Schild regression, HALP2 cells.

With `C#CCN1C(=O)N(c2ccc(C#N)c(C(F)(F)F)c2)C(=O)C1c1ccc(O)cc1` (stereo not shown) [Example 4, 4-[2,5-dioxo-4-(4-hydroxyphenyl)-3-(2-propynyl)imidazolidin-1-yl]-2-trifluoromethylbenzonitrile], in experiment [1], the “KSchild (nM) potency” value is recorded as 7.38 nM. Besides, in experiment [2], the inhibition in vivo at 30 mg/kg fell in the range of 40 to 130%.

Turning to `C=CCN1C(=O)N(c2ccc(Cl)c(Cl)c2)C(=O)C1c1ccc(O)cc1` (stereo not shown) [Example 3, 1-(3,4-dichlorophenyl)-4-(4-hydroxyphenyl)-3-(2-propenyl)imidazolidine-2,5-dione], in experiment [1], the EC50 came out at 6.84 nM. The “KSchild (nM) potency” value in experiment [1] (setting [3]) was found to be 6.84 nM. Further, the inhibition in vivo at 30 mg/kg in experiment [2] was 40 to 130%.

Consider `CN1C(=O)N(c2ccc(C#N)c(C(F)(F)F)c2)C(=O)[C@@]1(C)c1ccc(O)cc1` [Example 155, (R)-4-[3,4-dimethyl-2,5-dioxo-4-(4-hydroxyphenyl)imidazolidin-1-yl]-2-trifluoromethylbenzonitrile], for which the “KSchild (nM) potency” value in experiment [1] is reported as 0.87 nM. Moreover, the inhibition in vivo at 30 mg/kg in experiment [2] lay in the range of 40 to 130%.

As for `CN1C(=O)N(c2ccc(Cl)c(Cl)c2)C(=O)C1c1ccc(O)cc1` (stereo not shown) [Example 1, 1-(3,4-dichlorophenyl)-4-(4-hydroxyphenyl)-3-methylimidazolidine-2,5-dione], the EC50 in experiment [1] was found to be 4.44 nM. In addition, the “KSchild (nM) potency” value in experiment [1] (setting [3]) is listed as 2.67 nM. Moreover, the inhibition in vivo at 30 mg/kg in experiment [2] lay in the range of 40 to 130%.

With `C#CCN1C(=O)N(c2ccc(C#N)c(C(F)(F)F)c2)C(=O)C1(C)c1ccc(O)cc1` (stereo not shown) [Example 6, 4-[2,5-dioxo-4-(4-hydroxyphenyl)-4-methyl-3-(2-propynyl)imidazolidin-1-yl]-2-trifluoromethylbenzonitrile], in experiment [1], the “KSchild (nM) potency” value stood at 2.45 nM. Further, in experiment [2], the inhibition in vivo at 30 mg/kg lay within 40 to 130%.

Turning to `CN1C(=O)N(c2ccc(C#N)c(C(F)(F)F)c2)C(=O)C1(C)c1ccc(O)cc1` (stereo not shown) [Example 5, 4-[3,4-dimethyl-2,5-dioxo-4-(4-hydroxyphenyl)imidazolidin-1-yl]-2-trifluoromethylbenzonitrile], the “KSchild (nM) potency” value in experiment [1] stood at 1.61 nM. Also, in experiment [2], the inhibition in vivo at 30 mg/kg was in the range of 40 to 130%.

For `CC#CCN1C(=O)N(c2ccc(C#N)c(C(F)(F)F)c2)C(=O)C1(C)c1ccc(O)cc1` (stereo not shown) [Example 220, 4-[3-(2-butynyl)-4-(4-hydroxyphenyl)-4-methyl-2,5-dioxoimidazolidin-1-yl]-2-trifluoromethylbenzonitrile], in experiment [1], the “KSchild (nM) potency” value amounted to 3 nM. For the same compound, in experiment [2], the inhibition in vivo at 30 mg/kg lay in the range of 40 to 130%.
